{"source": "ChEMBL document CHEMBL5584353", "about": "“Design, Synthesis, and Biological Evaluation of Potent EZH2/LSD1 Dual Inhibitors for Prostate Cancer” (J Med Chem, 2024)", "key": {"[1]": {"experiment": "Toxicity in BALB/c mouse xenografted with human 22Rv1 cells assessed as liver morphological change at 80 mg/kg,ip administrated daily for 31 days", "type": "organism-based, CWR22R", "conditions": "in vivo, 744 h, time 31 day"}, "PC-3 [2]": {"system": "PC-3", "experiment": "Antimigratory activity in human PC-3 cells assessed as upregulation of E-cadherin expression at 3 to 10 uM incubated for 48 hrs by Western blotting analysis", "type": "functional, cell-based", "conditions": "dose 3-10 µM"}, "[3]": {"experiment": "Clearance in BALB/c mouse at 50 mg/kg,po measured upto 24 hrs by HPLC-MS/MS analysis", "type": "ADME, organism-based", "conditions": "in vivo"}, "[4]": {"target": "T1, Lysine-specific histone demethylase 1A (Homo sapiens, UniProt O60341)", "experiment": "Inhibition of LSD1 in human LNCaP cells assessed as downregulation of AR-V7 expression at 1 to 20 uM incubated for 48 hrs by Western blotting analysis", "type": "cell-based", "conditions": "dose 1-20 µM"}, "LNCaP": {"system": "LNCaP", "experiment": "Antimigratory activity in human LNCaP cells assessed as upregulation of E-cadherin expression at 3 to 10 uM incubated for 48 hrs by Western blotting analysis", "type": "functional, cell-based", "conditions": "dose 3-10 µM"}, "PC-3 [5]": {"system": "PC-3", "experiment": "Antimigratory activity in human PC-3 cells assessed as downregulation of E-cadherin expression at 3 to 10 uM incubated for 48 hrs by Western blotting analysis", "type": "functional, cell-based", "conditions": "dose 3-10 µM"}, "[6]": {"experiment": "AUC (0 to infinity) in BALB/c mouse at 50 mg/kg,ip measured upto 24 hrs by HPLC-MS/MS analysis", "type": "ADME, organism-based", "conditions": "in vivo"}, "CWR22R [7]": {"system": "CWR22R", "experiment": "Antimigratory activity in human 22Rv1 cells assessed as upregulation of E-cadherin expression at 3 to 10 uM incubated for 48 hrs by Western blotting analysis", "type": "functional, cell-based", "conditions": "dose 3-10 µM"}, "CWR22R [8]": {"system": "CWR22R", "conditions": "Homo sapiens, dose 80.0 mg/kg, route ip, time 31.0 day"}, "A549": {"system": "A549", "experiment": "Antiproliferative activity against human A549 cells assessed as inhibition of cell growth incubated for 6 to 7 days by MTS assay", "type": "functional, cell-based", "conditions": "time 6-7 day"}, "[9]": {"experiment": "Cmax in BALB/c mouse at 50 mg/kg,ip measured upto 24 hrs by HPLC-MS/MS analysis", "type": "ADME, organism-based", "conditions": "in vivo"}, "CWR22R [10]": {"system": "CWR22R", "experiment": "Induction of apoptosis in human 22Rv1 cells assessed as upregulation of p21 expression incubated for 48 hr by Western blotting analysis", "type": "functional, cell-based"}, "MOLM-13": {"system": "MOLM-13", "experiment": "Antiproliferative activity against human MOLM-13 cells assessed as inhibition of cell growth incubated for 6 to 7 days by MTS assay", "type": "functional, cell-based", "conditions": "time 6-7 day"}, "[11]": {"target": "T1, Lysine-specific histone demethylase 1A", "experiment": "Inhibition of LSD1 in human PC-3 cells assessed as upregulation of H3K4me2 expression at 1 to 5 uM incubated for 5 days by Western blotting analysis", "type": "cell-based", "conditions": "dose 1-5 µM, time 5.0 day"}, "[12]": {"experiment": "Toxicity in BALB/c mouse xenografted with human 22Rv1 cells assessed as change in body weight at 80 mg/kg,ip administrated daily for 31 days", "type": "organism-based, CWR22R", "conditions": "in vivo, 744 h, time 31 day"}, "[13]": {"experiment": "Clearance in BALB/c mouse at 50 mg/kg,iv measured upto 24 hrs by HPLC-MS/MS analysis", "type": "ADME, organism-based", "conditions": "in vivo"}, "[14]": {"experiment": "Clearance in BALB/c mouse at 50 mg/kg,ip measured upto 24 hrs by HPLC-MS/MS analysis", "type": "ADME, organism-based", "conditions": "in vivo"}, "[15]": {"target": "T1, Lysine-specific histone demethylase 1A", "experiment": "Inhibition of LSD1 in human LNCaP cells assessed as upregulation of H3K9me2 expression at 1 to 5 uM incubated for 5 days by Western blotting analysis", "type": "cell-based", "conditions": "dose 1-5 µM, time 5.0 day"}, "[16]": {"experiment": "Cytotoxicity against human HPNE cells incubated for 6 to 7 days by MTS assay", "type": "toxicity, cell-based", "conditions": "time 6-7 day"}, "[17]": {"target": "T1, Lysine-specific histone demethylase 1A", "experiment": "Inhibition of LSD1 in human 22Rv1 cells assessed as upregulation of H3K9me2 expression at 1 to 5 uM incubated for 5 days by Western blotting analysis", "type": "cell-based", "conditions": "dose 1-5 µM, time 5.0 day"}, "[18]": {"experiment": "Toxicity in BALB/c mouse xenografted with human 22Rv1 cells assessed as spleen morphological change at 80 mg/kg,ip administrated daily for 31 days", "type": "organism-based, CWR22R", "conditions": "in vivo, 744 h, time 31 day"}, "[19]": {"experiment": "Half life in BALB/c mouse at 50 mg/kg,ip measured upto 24 hrs by HPLC-MS/MS analysis", "type": "ADME, organism-based", "conditions": "in vivo"}}, "note": "Calls of active or inactive are those of the source. The rule behind the calls is not given here."}
{"smiles": "CCN(c1cc(-c2ccc([C@@H]3C[C@H]3N(CC3CCOCC3)C(=O)OC(C)(C)C)cc2)cc(C(=O)NCc2c(C)cc(C)[nH]c2=O)c1C)C1CCOCC1", "note": "(racemic)", "values": [{"measurement": "Activity", "setting": "[1]", "result": "Non-Toxic"}, {"measurement": "Activity", "setting": "PC-3 [2]", "result": "Active"}, {"measurement": "CL/F", "setting": "[3]", "result": 20, "unit": "mL/min/kg"}, {"measurement": "inhibition", "setting": "[4]", "result": "Active"}, {"measurement": "Activity", "setting": "LNCaP", "result": "Active"}, {"measurement": "Activity", "setting": "PC-3 [5]", "result": "Active"}, {"measurement": "AUC(0-inf)", "setting": "[6]", "result": 112, "unit": "µg·h/mL"}, {"measurement": "Activity", "setting": "CWR22R [7]", "result": "Active"}, {"measurement": "inhibition", "setting": "CWR22R [8]", "result": "Active"}, {"measurement": "Activity", "setting": "A549", "result": "Active"}, {"measurement": "Cmax", "setting": "[9]", "result": 20600, "unit": "ng/mL"}, {"measurement": "Activity", "setting": "CWR22R [10]", "result": "Dose-Dependent Effect"}, {"measurement": "Activity", "setting": "MOLM-13", "result": "Active"}, {"measurement": "inhibition", "setting": "[11]", "result": "Active"}, {"measurement": "Activity", "setting": "[12]", "result": "Non-Toxic"}, {"measurement": "clearance", "setting": "[13]", "result": 6.67, "unit": "mL/min/kg"}, {"measurement": "CL/F", "setting": "[14]", "result": 8.33, "unit": "mL/min/kg"}, {"measurement": "inhibition", "setting": "[15]", "result": "Active"}, {"measurement": "Activity", "setting": "[16]", "result": "Non-Toxic"}, {"measurement": "inhibition", "setting": "[17]", "result": "Active"}, {"measurement": "Activity", "setting": "[18]", "result": "Non-Toxic"}, {"measurement": "half-life", "setting": "[19]", "result": 3.5, "unit": "h"}]}
